Test results as given in the supplement of paper PMC10307832.

Tests used:
Assay in all cases: relative viability (nuclei count vs DMSO), 5 days (fraction); higher = more cells survive
Bemcentinib = compound: Nc1nc(Nc2ccc3c(c2)CC[C@@H](N2CCCC2)CC3)nn1-c1cc2c(nn1)-c1ccccc1CCC2 [Bemcentinib]
In short: (§1)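 MetaXpress counted nuclei in 4× images of lung cancer cell lines that had been fixed, permeabilised and Hoechst-stained in one step. Before that, cells in 1536-well plates were kept overnight at 37 °C, pinned with five √10-spaced library-drug doses on vehicle-anchored plates, and cultured 5 days without medium change. Viability takes treated-well nuclei over vehicle-well nuclei and uses the median across plates. Plates were accepted only at control CV below 25% and at least one doubling.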

Pifithrin_alpha = compound: CC1=CC=C(C=C1)C(=O)CN2C3=C(CCCC3)SC2=N [Pifithrin_alpha]
In short: as §1

Axitinib = compound: CNC(=O)c1ccccc1Sc1ccc2c(/C=C/c3ccccn3)n[nH]c2c1 [Axitinib]
In short: as §1

[1] = compound: CC1=CC=C(C=C1)C(=O)CN2C3=C(CCCC3)SC2=N [Pifithrin_alpha] + CC(=O)Nc1cccc(-n2c(=O)n(C3CC3)c(=O)c3c(Nc4ccc(I)cc4F)n(C)c(=O)c(C)c32)c1 [Trametinib] (partner 0.02 µM)
In short: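 Values are medians from duplicate plates. Each reflects relative viability, defined as the nuclei count of treated wells over that of vehicle wells. Lung cancer cell lines in 1536-well plates were pin-tool dosed one day after seeding with one drug alone or with a fixed anchor-drug dose plus five library-drug doses (not always all listed) in √10 steps, then fixed, stained and imaged at 4× after 5 days.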

Row | Cell Line | relative viability (Bemcentinib; 0.04 µM) | relative viability (Bemcentinib; 0.1265 µM) | relative viability (Bemcentinib; 0.4 µM) | relative viability (Bemcentinib; 1.265 µM) | relative viability (Bemcentinib; 4 µM) | relative viability (Pifithrin_alpha; 1 µM) | relative viability (Pifithrin_alpha; 3.162 µM) | relative viability (Pifithrin_alpha; 10 µM) | relative viability (Pifithrin_alpha; 31.62 µM) | relative viability (Pifithrin_alpha; 100 µM) | relative viability (Axitinib; 0.005 µM) | relative viability (Axitinib; 0.01581 µM) | relative viability (Axitinib; 0.05 µM) | relative viability (Axitinib; 0.1581 µM) | relative viability (Axitinib; 0.5 µM) | relative viability ([1]; first compound 1 µM) | relative viability ([1]; first compound 3.162 µM) | relative viability ([1]; first compound 10 µM) | relative viability ([1]; first compound 31.62 µM) | relative viability ([1]; first compound 100 µM)
1 | NCI-H2085 | 0.964 | 1.03 | 0.994 | 1.02 | 0.993 | 0.892 | 0.973 | 0.947 | 0.897 | 0.959 | 1.02 | 1.05 | 1.03 | 0.998 | 0.998 | 0.452 | 0.444 | 0.461 | 0.463 | 0.445
2 | HCC-827 | 1.07 | 1.05 | 0.994 | 0.976 | 1.06 | 1.03 | 1.02 | 0.977 | 0.809 | 0.896 | 1.03 | 1.01 | 1.06 | 1.1 | 1.15 | 0.558 | 0.562 | 0.576 | 0.498 | 0.573
3 | NCI-H522 | 0.927 | 0.96 | 1.06 | 0.9 | 0.879 | 0.79 | 1.12 | 0.947 | 0.85 | 0.972 | 0.914 | 0.969 | 0.996 | 0.882 | 0.693 | 0.61 | 0.754 | 0.743 | 0.693 | 0.618
4 | ChaGo-K-1 | 1.01 | 0.966 | 1.03 | 0.938 | 0.929 | 0.882 | 0.987 | 1 | 0.842 | 1.05 | 1.06 | 1.02 | 1.05 | 0.922 | 0.936 | 0.889 | 0.936 | 0.889 | 0.589 | 0.862
5 | H3255 | 0.804 | 0.994 | 0.993 | 0.951 | 0.964 | 0.856 | 0.93 | 0.945 | 0.71 | 0.795 | 0.985 | 0.851 | 0.912 | 0.894 | 0.896 | 0.578 | 0.831 | 0.546 | 0.421 | 0.442
6 | LOU-NH91 | 0.912 | 0.955 | 1 | 0.984 | 0.997 | 0.774 | 0.911 | 0.878 | 0.731 | 0.765 | 0.989 | 0.796 | 1.05 | 0.973 | 1 | 0.746 | 0.72 | 0.731 | 0.612 | 0.568
